Measured values as given in US9340577B2, “HLA binding motifs and peptides and their uses” (priority 1992, dated 2016).
No end group written: not given here.

How the values were obtained:
[1] = target: A*3002 (Homo sapiens, UniProt P04439, D101N/D140H/D185E/E176R/F33S/G80R/H175R/K168Q/Q94H/R138E/R41S/V100E); assay: biochemical; type: binding
[2] = target: HLA-A1 (A*0101) (Homo sapiens, UniProt P04439, A114D/A174V/A182V/D101N/D185E/E176A/E190D/L180R/Q94H/R68K/S129P/T187R/V100A/V91M/W191G); assay: biochemical; type: binding
[3] = target: A*2601 (Homo sapiens, UniProt P04439, A114D/A173T/A270S/D101N/D185E/E277Q/E87N/F33Y/G231S/I121R/I218V/K168Q/L180W/L300P/L318F/P208A/P217A/Q86R/Q94H/R138Q/S129P/T187R/T323A/T345S/V100A/V358M); assay: biochemical; type: binding
[4] = target: HLA-A*0201 (HLA-A2.1) (Homo sapiens, UniProt P04439, D140Y/D185E/D98H/E176V/E277Q/G131W/G231S/I119V/I121R/I166T/I218V/L300P/L318F/N151K/N90K/P208A/P217A/Q86G/Q94H/R138H/R169H/T345S); assay: biochemical; type: binding
[5] = system: HLA-A24; type: binding, human
[6] = target: A2.1 HLA molecules (Homo sapiens, UniProt P04439, D140Y/D185E/D98H/E176V/E277Q/G131W/G231S/I119V/I121R/I166T/I218V/L300P/L318F/N151K/N90K/P208A/P217A/Q86G/Q94H/R138H/R169H/T345S); type: binding; parameters: A*0201 / A2.1 Binding / A2 Bind. / A2 / A2.1 (binding capacity): scale not given here
[7] = target: A*2902 (Homo sapiens, UniProt P04439, A270S/D101N/D185E/E176V/E277Q/E87Q/F33T/G231S/H175R/I121M/I218V/I322F/K168Q/L300P/L318F/M331R/P208A/P217A/Q86L/T323A/T345S/V100A/V358M); assay: biochemical; type: binding

A*3002, sequence (P04439 whole entry, looked up, the tested form may be a part, stated change not applied): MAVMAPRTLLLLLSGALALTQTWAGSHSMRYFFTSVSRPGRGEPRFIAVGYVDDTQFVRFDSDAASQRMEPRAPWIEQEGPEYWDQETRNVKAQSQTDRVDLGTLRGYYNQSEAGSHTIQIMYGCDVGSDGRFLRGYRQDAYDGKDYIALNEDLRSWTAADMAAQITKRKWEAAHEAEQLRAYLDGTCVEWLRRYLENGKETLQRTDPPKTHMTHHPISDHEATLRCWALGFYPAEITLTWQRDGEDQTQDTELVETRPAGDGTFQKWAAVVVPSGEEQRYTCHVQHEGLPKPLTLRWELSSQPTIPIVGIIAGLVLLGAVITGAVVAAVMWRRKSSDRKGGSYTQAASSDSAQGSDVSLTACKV

| Sequence | IC50 [3] | binding to HLA-A2.1 (column 3; no allele head shown for these rows) [4] | binding to HLA-A24 (column 6; no allele head shown for these rows) [5] | other results |
| --- | --- | --- | --- | --- |
| KSAIVTLTY [Peptide 1580.20] | > 20000 nM | – | – | IC50 [1]: 5.7 nM; IC50 [2]: 9.2 nM |
| KVADLVGFL | – | 0.0091 | 0 | – |
| KVADLVGFLL | – | 0.041 | 0.0070 | A2 Bind. [6]: 0.0560 |
| KVAELVHFL | – | 0.073 | 0.0005 | – |
| KVLEYVIKV | – | 0.095 | 0 | A2 Bind. [6]: 0.0900 |
| LAETSYVKVL | – | 0 | <0.0002 | – |
| LSSALEIPY [Peptide 1549.01] | 4110 nM | – | – | IC50 [1]: 83 nM; IC50 [2]: 25 nM |
| LTDKILDHY [Peptide 1593.16] | 804 nM | – | – | IC50 [2]: 3.1 nM; IC50 [7]: 4420 nM |
| LTQRNPQLCY [Peptide 9012.0151] | 21 nM | – | – | IC50 [1]: 7.1 nM; IC50 [2]: 6.9 nM |
| LVLGTLEEV | – | 0.032 | 0.0003 | A2 [6]: 0.0320; A2 Bind. [6]: 0.0320; A2.1 relative binding (ratio of binding of test peptide relative to standard peptide) [6]: 0.032 |
| MLESVIKNYK | – | 0 | 0 | – |
| MTETLNNTEY [Peptide 1593.15] | 1620 nM | – | – | IC50 [2]: 77 nM; IC50 [7]: 471 nM |
| QAATSSSSPL | – | 0 | <0.0002 | – |
| QIMPKTGFLII | – | 0.0003 | 0.0030 | – |
| QTEPDTSNY [Peptide 1549.44] | 4980 nM | – | – | IC50 [7]: > 20000 nM |
| RALAETSYV | – | 0.014 | 0 | A2 [6]: 0.0100; A2 Bind. [6]: 0.0100 |
| SAYGEPRKL | – | 0.0002 | <0.0002 | – |

| Sequence | IC50 [3] | binding to HLA-A2.1 (column 3; no allele head shown for these rows) [4] | binding to HLA-A24 (column 6; no allele head shown for these rows) [5] | other results |
| --- | --- | --- | --- | --- |
| SAYGEPRKLL | – | 0 | 0.0008 | – |
| SLQLVFGI | – | 0.0094 | 0 | – |
| SLQLVFGIDV | – | 0.0047 | 0.0001 | – |
| STDLRDHIDY [Peptide 1580.18] | 9580 nM | – | – | IC50 [2]: 25 nM; IC50 [7]: > 20000 nM |
| TTEPEAQNTTY [Peptide 9012.0166] | 530 nM | – | – | IC50 [2]: 2.1 nM; IC50 [7]: 1330 nM |
| TTSPLNTSY [Peptide 9012.0116] | 2.6 nM | – | – | IC50 [1]: 12 nM |
| VADLVGFLL | – | 0.0011 | 0.0007 | – |
| VADLVGFLLL | – | 0.0008 | 0.0003 | – |
| VAELVHFLL | – | 0 | 0.039 | – |
| VIPHAMSSCGV | – | 1.4 | 0 | – |
| VLGTLEEV | – | 0.0088 | 0 | – |
| VLVTCLGL | – | 0.0010 | 0 | – |
| VMIAMEGGHA | – | 0.0023 | 0 | A2 Bind. [6]: 0.0360 |
| VSEFRWYRY [Peptide 1549.02] | > 20000 nM | – | – | IC50 [2]: 33 nM; IC50 [7]: 1520 nM |
| VTDSRNTKY [Peptide 1580.30] | > 20000 nM | – | – | IC50 [2]: 25 nM; IC50 [7]: > 20000 nM |
| YLEYGRCRTV | – | 0.0097 | 0 | – |
| YVIKVSARV | – | 0.018 | 0 | A2 Bind. [6]: 0.0140 |
